Results on one molecule are retold here after patent US20190091175A1, “METHOD OF REDUCTION […] TREATING DRAVET SYNDROME” (ZOGENIX INTERNATIONAL LIMITED, priority 2017, published 2019).

Data set [1] has as its system subjects with Dravet syndrome. Put plainly: Study 1: Phase 3 double-blind placebo-controlled study of liquid fenfluramine formulation (ZX008) in Dravet syndrome. The class given is in vivo, human. As to the method: The first 119 subjects to be randomized in both identical studies combined were analyzed and reported as Study 1 (FIG. 1), covered by a Statistical Analysis Plan (SAP).
Primary and key secondary endpoints in the Study 1 SAP were pre-determined. All patients were treated twice per day over a period of 14 weeks using an oral syringe to administer the formulation. The treatment period included a two-week titration period and a 12-week maintenance period.
The initial results of Study 1 are outlined below. The randomized, double blind, placebo controlled, Phase 3 study enrolled 119 patients across sites in the United States, Canada, Europe and Australia. The median age of patients was 8 years, the mean age of patients was 9 years (range, 2-18 years) (FIG. 2).
Patients were titrated to their target dose over two weeks, and then remained at that fixed dose for 12 weeks. The mean baseline convulsive seizure frequency across the study groups was approximately 40 seizures per month. 110 (92%) patients completed the study (85% 0.8 mg/kg/day; 100% 0.2 mg/kg/day; 93% placebo).
The mean number of convulsive seizure free days, defined as a day for which diary data are available and no convulsive seizures have been reported, was determined for each treatment group during the Baseline and T+M Periods. Using a parametric analysis, comparisons for the ZX008 groups to placebo were estimated from an ANCOVA model with treatment group (3 levels) and age group (<6 years, ≥6 years) as factors, log baseline number of convulsive seizure free days as a covariate and log convulsive seizure free days (Titration+Maintenance, or Maintenance Period) as response. The mean (SD) number of convulsive seizure free days per 28 days during the Baseline Period was 12.6 (7.68), 15.7 (6.80), and 14.6 (7.59) for the placebo, 0.2 and 0.8 mg/kg/day groups, respectively. […] The mean (SD) number of convulsive seizure free days for the 0.2 mg/kg/day group was 17.9 (8.04) days, which was numerically greater than placebo, but was not statistically significant (p=0.514). […]

The subject of data set [2] is self-induced photosensitive seizures. To be noted: four cases; cited from earlier work.
The subject of data set [3] is pattern sensitivity-induced seizures. The settings on record: one child; cited from earlier work.
The test system of data set [4] is children with refractory epilepsy. To be noted: 0.5 to 1 mg/kg/day; cited from earlier work.
The test system of data set [5] is patients with Dravet syndrome. To be noted: long-term fenfluramine treatment; cited from earlier work.

Structures are written as SMILES.

As for `CCNC(C)Cc1cccc(C(F)(F)F)c1` (racemic) [Fenfluramine, (RS)-N-ethyl-1-[3-(trifluoromethyl)phenyl]propan-2-amine], the “subjects with an adverse event leading to study termination / discontinuation” value in data set [1] (0.8 mg/kg/day group) is “Five”. The tolerability entry in data set [1] (oral, 0.2 and 0.8 mg/kg/day, 14 weeks) is recorded as “generally well-tolerated”. Moreover, the “prospective cardiac safety monitoring (clinical, echocardiographic)” value in data set [1] (throughout the study) was “no clinical or echocardiographic evidence of cardiac valvulopathy or pulmonary hypertension”. In addition, the “response of self-induced photosensitive seizures” value in data set [2] is “responded to treatment”. In addition, the “effect on self-induced seizures resistant to anticonvulsive treatment” value in data set [3] is “successfully terminated these self-induced seizures”. In addition, in data set [4], the “effect on number of seizures” value is given as “reduction in the number of seizures”. Further, in data set [5], the “heart valve defects by echocardiography” value is given as “No clinically relevant defects were identified”.
